Laboratory results from patent US10265302B2, “Compound useful for the treatment of nonsense-mutation-mediated diseases and pharmaceutical composition comprising said compound” (UNIVERSITE DE LILLE, priority 2010, dated 2019).

What was measured:
[1] = test system: NMD (Firefly luciferase mRNA tethered with MS2-UPF fusion protein); test: NMD inhibition using Firefly luciferase in HeLa cells; format: cell-based; conditions: 10 μmol/l of G07, versus control wells
Text: The presence of one of the following UPF proteins (UPF1, UPF2, UPF3 (also called UPF3a) or UPF3X (also called UPF3b)) on the 3′UTR part of an mRNA, activates NMD on this particular mRNA. When an UPF protein is located downstream from a normal stop codon, said normal stop codon is recognized as a PTC. Consequently, the mRNA comprising the UPF protein will be degraded through NMD.
HeLa cell-line expressing Firefly luciferase mRNA were used. Firefly luciferase mRNA harbors MS2 binding sites in the 3′UTR. The above-mentioned cells further contain a fusion protein which consists in said MS2 protein and one of the four UPF proteins. This fusion protein enables UPF positioning downstream from the normal stop codon (i.e. on the 3′UTR part of this mRNA). Accordingly, the normal stop codon is recognized as a PTC. Consequently, NMD is activated and degrades Firefly luciferase mRNA.
Luciferase activity in the above-mentioned cells is thus directly linked to NMD activity.
HeLa cells were cultured in DMEM (Gibco) supplemented with 10% FBS and containing 10 μmol/l of G07.

[2] = after oral administration; cited from earlier work
[3] = test system: PTC-containing dystrophin gene in DMD cells; test: Dystrophin mRNA in DMD cells by RT-PCR; format: cell-based
Protocol: As regards the results of FIG. 11 a, DMD cells were incubated with increasing amounts of […] molecule or as a control with DMSO. RNAs were purified using RNazol reagent (MRC) and reverse transcribed using Superscript. II (Life technologies) and random hexamer. PCR using radiolabelled CTP was performed in order to amplify either dystrophin or GAPDH cDNA. Amplification products were loaded on 5% polyacrylamide gel. The gel was then dried and exposed on phosphoscreen in order to allow quantification of each amplification species by Personal Molecular Imager (Biorad).

[4] = test system: CFTR mRNA (PTC at position 1282) in IB3 cells; test: NMD inhibition in IB3 cells (CFTR mRNA by RT-PCR); format: cell-based; conditions: increasing concentrations, 20 hours
Protocol: IB3 cells harbor a […] in position 1282 in place of the tryptophan codon of the CFTR gene.
IB3 cells (ATCC) were incubated in DMSO solutions containing pure DMSO (as a control) or increasing G07 concentrations, respectively, during 20 hours.
RNAs obtained after incubation were purified and a RT-PCR was performed to measure the amount of CFTR mRNA (containing a PTC) and the amount of GADPH mRNA (used as a control).

[5] = test system: MOR mRNA (MOR gene with NMD-activating nonsense-mutation); test: In vivo NMD inhibition in KIM mice (MOR mRNA in brain); parameters: species or system mouse; conditions: 1Q and 2Q (0.2 and 2 mg/kg) injected in DMSO, 24 hours after injection
Protocol: In KIM mice, MOR gene harbors a NMD-activating nonsense-mutation. MOR gene is expressed in nervous central system. Solutions containing 0.2, 2 or 20 mg/kg of G07 (1Q, 2Q or 3Q respectively) dissolved in DMSO were injected into KIM mice. A control group consists of animals treated with pure DMSO. Animals were then euthanized 6, 24 or 32 hours after injection. RNAs extracted from brain homogenates were purified using TriReagent (MRC) and then analyzed as described with reference to FIG. 2. The difference between the experiments described with reference to FIG. 2 is that in the present case the mRNAs analyzed are the mRNA coding for MOR gene and the mRNA coding for the GAPDH gene used as a control to quantify measured MOR mRNA. The first 3 wells from the left correspond to a half dilution of a sample coming from a wild-type mouse brain. These 3 wells were used to check the PCR conditions which have to be quantitatively useful. […] The same technique as described with reference to FIG. 2 was used except the fact that RNA comes from KIM mice brains. Some of these KIM mice were injected with G07.

CFTR in 6-CFSMEo- cells = test: Iodide efflux in 6-CFSMEo- cells (SPQ fluorescence); format: cell-based; conditions: 6-CFSMEo- cells, 0.2, 1, 5 and 25 μM; forskolin 20 μM and IBMX 200 μM
Protocol: 6-CFSMEo− cells harbor a PTC in place of the glutamine 2 codon of the CFTR gene.
6-CFSMEo^− cells were seeded in 96-well plates and loaded overnight with 10 mM of the halide-sensitive fluorophore dye 6-methoxy-N-(3-sulfopropyl)-quinolinium (SPQ, Invitrogen). Cells were washed twice with iodide buffer (135 mM NaI, 2.4 mM K2HPO4, 0.6 mM KH2PO4, 1 mM MgSO4, 1 mM CaSO4, 10 mM dextrose and 10 mM Hepes, pH 7.3) and then incubated in iodide buffer for 30 min. After basal fluorescence was measured for 2 min, the iodide buffer was replaced with nitrate buffer (with 135 mM NaNO3 instead of NaI) containing 20 μM of forskolin and 200 μM of IBMX, and fluorescence was further measured for 10 minutes. The fluorescence intensities were measured every 15 seconds using the Tristar LB 941 microplate reader (Berthold) equipped with a 340 nm excitation filter and a 450 nm emission filter. […] G07 concentrations used were 0.2 μM, 1 μM, 5 μM and 25 μM, respectively. The increase in iodide efflux is shown as mean±SEM from at least four independent assays. It refers to the fluorescence at the reading time; F0 refers to the average fluorescence before addition of the above-mentioned nitrate buffer containing 20 μM of forskolin and 200 μM of IBMX.

[6] = test system: PTC-containing dystrophin gene in DMD cells; test: Dystrophin protein in DMD cells by Western blot; format: cell-based
Protocol: As regards the results of FIG. 11 b, DMD cells were incubated with increasing amounts of […] molecule or as a control with DMSO. Protein extracts from these cells were loaded on 10% SDS-PAGE and transferred on nitrocellulose membrane. Nitrocellulose membrane was then exposed to primary antibody (either anti-dystrophin antibody raised against the amino-part of dystrophin protein (Santa-Cruz), or anti-tubulin antibody in order to specify the loading protein amount of each lane.

[7] = test system: P53 protein in Calu-6 cells; test: P53 and P21 protein in Calu-6 cells by Western blot; format: cell-based
Protocol: Moreover, G07 enables the synthesis of a truncated P53 protein and a full-length P53 protein in Calu-6 cells. G07 is thus different from the molecules disclosed in WO 2008/101935. Regarding the molecules disclosed in the above-mentioned document, only the truncated protein has been detected. Protein extracts of Calu-6 cells incubated or not with G07 were loaded on an electrophoresis gel and then transferred on a nitrocellulose membrane in order to detect P53 protein after incubation with an anti-P53 antibody (an anti-P53 antibody is an antibody directed against the amino terminal part of P53 (Santa Cruz)).
When P53 protein is synthesized, P53 activates P21 expression. […] Thus, P53 protein synthesized thanks to G07 induces P21 expression as WT P53 protein does. Consequently, the Applicants have thus confirmed that G07 enables the synthesis of a functional full-length P53 protein.

[8] = test system: P53 mRNA (UGA PTC at codon 196) in Calu-6 cells; test: P53 mRNA level in Calu-6 cells by RT-PCR; format: cell-based
Text: RNAs of said Calu-6 cells were reverse transcribed and amplified through PCR (RT-PCR) in the presence of a radioactive labeling nucleotide in order to measure P53 mRNA and GAPDH mRNA levels (GAPDH being used as a loading control). […] Amplified reverse transcribed mRNAs were loaded on an acrylamide gel and submitted to electrophoresis. Acrylamide gel was then dried on Whatman paper and applied on a phosphoscreen (Kodak). A Personal Molecular Imager (Bic-Rad) was used to quantify amplified radiolabelled species. Calu-6 cells were incubated with growing concentrations of G07 in DMSO during about twenty hours. This was carried out in order to confirm NMD inhibition activity of G07. After incubation, RNAs were purified by using TriReagent (MRC) and then reverse-transcribed into cDNA which can be PCR amplified in presence of a radiolabelled nucleotide.
Thus, an increasing quantity of P53 mRNA results from stabilization thereof. […] GAPDH (Glyceraldehyde 3-phosphate deshydrogenase) mRNA was amplified in order to normalize the measurement of P53 mRNA between two lanes.

NMD = conditions: cited from earlier work

| SMILES | luciferase activity (NMD inhibition) [1] | tissue distribution [2] | concentration of maximum efficacy, dystrophin mRNA [3] | dystrophin mRNA (RT-PCR) ([3]; increasing amounts) | ratio amount of CFTR mRNA/amount of GAPDH mRNA [4] | MOR mRNA level in brain [5] | iodide efflux (CFTR in 6-CFSMEo- cells) | concentration of maximum efficacy, dystrophin protein [6] | dystrophin protein (Western-blot) ([6]; increasing amounts) | P21 protein (functionality of P53) ([7]; 25 and 125 μM) | P53 protein synthesis (Western blot) ([7]; about 20 hours incubation) | NMD inhibition / P53 mRNA stabilization ([8]; 25 μM) | quantity of P53 mRNA (normalised to GAPDH mRNA) ([8]; growing concentrations in DMSO, about twenty hours) | NMD inhibiting activity (NMD) |
| --- | --- | --- | --- | --- | --- | --- | --- | --- | --- | --- | --- | --- | --- | --- |
| CC(C)c1ccc2oc3nc(N)c(C(=O)O)cc3c(=O)c2c1 [G07, 2-amino-7-isopropyl-5-oxo-5H-chromeno[2,3-b]pyridine-3-carboxylic acid] | higher than in control wells | preferably distributed in liver, kidneys and intestine | 5 µM | stabilization of dystrophin mRNA | increased stabilization of CTFR mRNA | stabilization of MOR mRNA | dose-response effect | 5 µM | synthesis of dystrophin protein | presence of P21 | full-length and truncated P53 proteins are synthesized | inhibits NMD and enables a stabilization of P53 mRNA | increased quantity of P53 mRNA |  |
| O=C(O)c1cccc(-c2noc(-c3ccccc3F)n2)c1 [PTC124, 3-[5-(2-fluorophenyl)-1,2,4-oxadiazol-3-yl]benzoïc acid] |  |  |  |  |  |  |  |  |  |  |  |  |  | no NMD inhibiting activity |
